Assay results reported in the supplement of paper PMC10627819.

Key:
S. pneumoniae D39V [1] = assay: Bliss interaction score (quartile over a dose matrix) (fitness difference); higher = more antagonism (negative = synergy)
In short: (§1)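 Combination data were used to infer fitness under each single drug. Fitness is the OD595 at entry into stationary phase divided by the robust mean of the plate's no-drug wells, with a cap of 1. The Bliss score is the observed minus the expected product fitness, summarised by quartiles over technical, biological and donor/recipient replicates.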

S. aureus Newman [2] = assay: as above
In short: as §1

B. subtilis 168 [3] = assay: as above
In short: as §1

S. aureus DSM 20231 = assay: as above
In short: as §1

S. pneumoniae D39V [4] = assay: fitness (endpoint OD595 vs no drug) (fraction); higher = more growth
In short: (§2)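 Cultures at OD595 0.01 were dispensed into 384-well plates in TSB, LB Lennox or CY and incubated at 37 °C. Every 30 min for 14 h, OD595 was read and corrected by the first reading. Fitness is the optical density at entry into stationary phase relative to the robust mean of no-drug control wells, capped at 1.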

S. aureus Newman [5] = assay: as above
In short: as §2

B. subtilis 168 [6] = assay: as above
In short: as §2
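For Bliss interaction score (quartile over a dose matrix) in this document: first quartile when negative (synergy) and third quartile when positive (antagonism).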

CC1=C(C(=O)O)N2C(=O)[C@@H](NC(=O)[C@H](N)c3ccccc3)[C@H]2SC1 [Cephalexin] + Cc1onc(-c2ccccc2)c1C(=O)N[C@@H]1C(=O)N2[C@@H]1SC(C)(C)[C@@H]2C(=O)O [Oxacillin]
Conditions | Bliss interaction score
B. subtilis 168 [3] | 0.0457
S. aureus DSM 20231 | 0.0592
S. aureus Newman [2] | 0.0632
S. pneumoniae D39V [1] | -0.216

fitness, one replicate
Conditions | first compound 0.125 µg/mL | first compound 0.25 µg/mL | first compound 0.5 µg/mL | first compound 1 µg/mL
B. subtilis 168 [6], partner 0.075 µg/mL | – | 0.65 | 0.551 | 0.563
B. subtilis 168 [6], partner 0.15 µg/mL | – | 0.0401 | 0.0556 | 0.0643
B. subtilis 168 [6], partner 0.3 µg/mL | – | 0.0429 | 0.0316 | 0.051
S. pneumoniae D39V [4], partner 0.01 µg/mL | ≥ 1 | 0.989 | 0.99 | –
S. pneumoniae D39V [4], partner 0.02 µg/mL | 0.92 | 0.897 | 0.886 | –
S. pneumoniae D39V [4], partner 0.04 µg/mL | 0.175 | 0.196 | 0.124 | –

Conditions | fitness
B. subtilis 168 [6], first compound 0.125 µg/mL, partner 0.002 µg/mL | 0.975
B. subtilis 168 [6], first compound 0.125 µg/mL, partner 0.004 µg/mL | 0.879
B. subtilis 168 [6], first compound 0.125 µg/mL, partner 0.008 µg/mL | 0.896
B. subtilis 168 [6], first compound 0.25 µg/mL, partner 0.002 µg/mL | 0.911
B. subtilis 168 [6], first compound 0.25 µg/mL, partner 0.004 µg/mL | 0.948
B. subtilis 168 [6], first compound 0.25 µg/mL, partner 0.008 µg/mL | 0.879
B. subtilis 168 [6], first compound 0.5 µg/mL, partner 0.002 µg/mL | 0.925
B. subtilis 168 [6], first compound 0.5 µg/mL, partner 0.004 µg/mL | 0.961
B. subtilis 168 [6], first compound 0.5 µg/mL, partner 0.008 µg/mL | 0.97
S. aureus Newman [5], first compound 0.25 µg/mL, partner 0.0156 µg/mL | 0.803
S. aureus Newman [5], first compound 0.25 µg/mL, partner 0.0312 µg/mL | 0.761
S. aureus Newman [5], first compound 0.25 µg/mL, partner 0.0625 µg/mL | 0.727
S. aureus Newman [5], first compound 0.5 µg/mL, partner 0.0156 µg/mL | 0.768
S. aureus Newman [5], first compound 0.5 µg/mL, partner 0.0312 µg/mL | 0.749
S. aureus Newman [5], first compound 0.5 µg/mL, partner 0.0625 µg/mL | 0.675
S. aureus Newman [5], first compound 1 µg/mL, partner 0.0156 µg/mL | 0.721
S. aureus Newman [5], first compound 1 µg/mL, partner 0.0312 µg/mL | 0.72
S. aureus Newman [5], first compound 1 µg/mL, partner 0.0625 µg/mL | 0.651
S. pneumoniae D39V [4], first compound 1 µg/mL, partner 0.02 µg/mL | 0.171
S. pneumoniae D39V [4], first compound 1 µg/mL, partner 0.04 µg/mL | 0.0188
S. pneumoniae D39V [4], first compound 2 µg/mL, partner 0.01 µg/mL | 0.1
S. pneumoniae D39V [4], first compound 2 µg/mL, partner 0.02 µg/mL | 0.044
S. pneumoniae D39V [4], first compound 2 µg/mL, partner 0.04 µg/mL | 0.0313
S. pneumoniae D39V [4], first compound 4 µg/mL, partner 0.01 µg/mL | 0.0222
S. pneumoniae D39V [4], first compound 4 µg/mL, partner 0.02 µg/mL | 0.0259
S. pneumoniae D39V [4], first compound 4 µg/mL, partner 0.04 µg/mL | 0.0275

CNC(C)C1CCC(N)C(OC2C(N)CC(N)C(OC3OCC(C)(O)C(NC)C3O)C2O)O1 (configuration not stated) [Gentamicin] + CC1=C\[C@@H](O)CC(=O)Cc2nc(co2)C(=O)N2CCC=C2C(=O)O[C@H](C(C)C)[C@H](C)/C=C/C(=O)NC\C=C\1 [Virginiamycin M1]
main component drawn
Conditions | Bliss interaction score
B. subtilis 168 [3] | -0.0977
S. aureus DSM 20231 | 0.094
S. aureus Newman [2] | -0.0365
S. pneumoniae D39V [1] | 0.0786

fitness, one replicate, main component drawn
Conditions | first compound 1 µg/mL | first compound 2 µg/mL | first compound 4 µg/mL | first compound 8 µg/mL
S. aureus Newman [5], partner 0.5 µg/mL | 0.849 | 0.873 | 0.22 | –
S. aureus Newman [5], partner 1 µg/mL | 0.961 | ≥ 1 | 0.0961 | –
S. aureus Newman [5], partner 2 µg/mL | 0.849 | 0.792 | 0.0867 | –
S. pneumoniae D39V [4], partner 0.15 µg/mL | – | ≥ 1 | ≥ 1 | ≥ 1
S. pneumoniae D39V [4], partner 0.3 µg/mL | – | ≥ 1 | ≥ 1 | 0.944

fitness, main component drawn
Conditions | partner 0.0625 µg/mL | partner 0.125 µg/mL | partner 0.25 µg/mL | partner 0.5 µg/mL | partner 1 µg/mL | partner 2 µg/mL
B. subtilis 168 [6], first compound 0.0625 µg/mL | 0.895 | 0.897 | 0.905 | – | – | –
B. subtilis 168 [6], first compound 0.25 µg/mL | 0.0328 | 0.0454 | 0.0523 | – | – | –
S. aureus Newman [5], first compound 0.5 µg/mL | 0.959 | 0.996 | 0.995 | – | – | –
S. aureus Newman [5], first compound 1 µg/mL | ≥ 1 | ≥ 1 | ≥ 1 | – | – | –
S. aureus Newman [5], first compound 2 µg/mL | ≥ 1 | ≥ 1 | ≥ 1 | – | – | –
S. pneumoniae D39V [4], first compound 2 µg/mL | – | – | – | 0.973 | ≥ 1 | 0.952
S. pneumoniae D39V [4], first compound 4 µg/mL | – | – | – | 0.99 | ≥ 1 | 0.973
S. pneumoniae D39V [4], first compound 8 µg/mL | – | – | – | 0.991 | ≥ 1 | 0.943

CNC(C)C1CCC(N)C(OC2C(N)CC(N)C(OC3OCC(C)(O)C(NC)C3O)C2O)O1 (configuration not stated) [Gentamicin] + CCN(CC)CCOC(=O)c1ccc(N)cc1 [Procaine]
main component drawn
Conditions | Bliss interaction score
B. subtilis 168 [3] | -0.101
S. aureus DSM 20231 | 0.0726
S. aureus Newman [2] | 0.0373
S. pneumoniae D39V [1] | 0.099

fitness, main component drawn
Conditions | partner 85.5 µg/mL | partner 171 µg/mL | partner 342 µg/mL
B. subtilis 168 [6], first compound 0.0625 µg/mL | 0.89 | 0.872 | 0.871
B. subtilis 168 [6], first compound 0.25 µg/mL | 0.0903 | 0.0388 | 0.109
S. aureus Newman [5], first compound 0.5 µg/mL | – | 0.975 | 0.925
S. aureus Newman [5], first compound 1 µg/mL | – | ≥ 1 | 0.99
S. aureus Newman [5], first compound 2 µg/mL | – | ≥ 1 | 0.944
S. pneumoniae D39V [4], first compound 2 µg/mL | ≥ 1 | 0.981 | 0.968
S. pneumoniae D39V [4], first compound 4 µg/mL | ≥ 1 | 0.977 | 0.944
S. pneumoniae D39V [4], first compound 8 µg/mL | 0.938 | 0.965 | 0.935

fitness, S. aureus Newman [5], one replicate, main component drawn
Conditions | first compound 0.375 µg/mL | first compound 0.75 µg/mL | first compound 1.5 µg/mL
partner 85.5 µg/mL | ≥ 1 | ≥ 1 | ≥ 1
partner 171 µg/mL | ≥ 1 | ≥ 1 | 0.984
partner 342 µg/mL | ≥ 1 | ≥ 1 | ≥ 1

CNC(C)C1CCC(N)C(OC2C(N)CC(N)C(OC3OCC(C)(O)C(NC)C3O)C2O)O1 (configuration not stated) [Gentamicin] + CN1C2=CC=CC=C2N=C3C1=CC=CC3=O [Pyocyanin]
main component drawn
Conditions | Bliss interaction score
B. subtilis 168 [3] | 0.129
S. aureus DSM 20231 | 0.0622
S. aureus Newman [2] | 0.111
S. pneumoniae D39V [1] | -0.113

main component drawn
Conditions | fitness
B. subtilis 168 [6], first compound 0.0625 µg/mL, partner 1.25 µg/mL | 0.893
B. subtilis 168 [6], first compound 0.0625 µg/mL, partner 2.5 µg/mL | 0.802
B. subtilis 168 [6], first compound 0.0625 µg/mL, partner 5 µg/mL | 0.758
B. subtilis 168 [6], first compound 0.125 µg/mL, partner 5 µg/mL | 0.559
B. subtilis 168 [6], first compound 0.25 µg/mL, partner 1.25 µg/mL | 0.0424
B. subtilis 168 [6], first compound 0.25 µg/mL, partner 2.5 µg/mL | 0.038
B. subtilis 168 [6], first compound 0.25 µg/mL, partner 5 µg/mL | 0.0455
S. aureus Newman [5], first compound 0.5 µg/mL, partner 1.25 µg/mL | 0.908
S. aureus Newman [5], first compound 0.5 µg/mL, partner 2.5 µg/mL | 0.873
S. aureus Newman [5], first compound 1 µg/mL, partner 1.25 µg/mL | 0.942
S. aureus Newman [5], first compound 1 µg/mL, partner 2.5 µg/mL | 0.909
S. aureus Newman [5], first compound 1 µg/mL, partner 5 µg/mL | 0.645
S. aureus Newman [5], first compound 2 µg/mL, partner 1.25 µg/mL | 0.917
S. aureus Newman [5], first compound 2 µg/mL, partner 2.5 µg/mL | 0.903
S. aureus Newman [5], first compound 2 µg/mL, partner 5 µg/mL | 0.545
S. pneumoniae D39V [4], first compound 2 µg/mL, partner 0.325 µg/mL | 0.962
S. pneumoniae D39V [4], first compound 2 µg/mL, partner 0.65 µg/mL | 0.964
S. pneumoniae D39V [4], first compound 2 µg/mL, partner 1.3 µg/mL | 0.6
S. pneumoniae D39V [4], first compound 4 µg/mL, partner 0.325 µg/mL | ≥ 1
S. pneumoniae D39V [4], first compound 4 µg/mL, partner 0.65 µg/mL | 0.959
S. pneumoniae D39V [4], first compound 4 µg/mL, partner 1.3 µg/mL | 0.599
S. pneumoniae D39V [4], first compound 8 µg/mL, partner 0.325 µg/mL | 0.94
S. pneumoniae D39V [4], first compound 8 µg/mL, partner 0.65 µg/mL | 0.865
S. pneumoniae D39V [4], first compound 8 µg/mL, partner 1.3 µg/mL | 0.531

fitness, S. aureus Newman [5], one replicate, main component drawn
Conditions | first compound 0.375 µg/mL | first compound 0.75 µg/mL | first compound 1.5 µg/mL
partner 1.25 µg/mL | 0.76 | 0.775 | 0.774
partner 2.5 µg/mL | 0.791 | 0.776 | 0.783
partner 5 µg/mL | 0.439 | 0.463 | 0.421
